Measurements taken from patent US20120029187A1, “HALOALKYLSULFONANILIDE DERIVATIVE” (Nissan Chemical Industries, Ltd., priority 2009, published 2012).

Assays:
Format in all cases: in vivo
[1] = system: barnyardgrass; experiment: Test Example 1: herbicidal effects in preemergence treatment under submerged conditions; settings: dose 2.52 g/a
Text: (§1) Test on the Herbicidal Effects in Preemergence Treatment on Weeds Under Submerged Conditions
(§2) Alluvial soil was put in 1/30000-are styrol cups and admixed with water so that it was submerged at a depth of 4 cm. In each cup, seeds of barnyardgrass, bulrush and ducksalad were sown together, and rice seedlings at the 2.5-leaf stage were transplanted. On the same day as the seeding, emulsifiable concentrates containing compounds of the present invention formulated in accordance with Formulation Example 2 were applied to the water surfaces at predetermined doses after diluted with water. The cups were placed in a greenhouse at 25 to 30° C. to grow the plants. Three weeks after the application, the herbicidal effects against various plants were determined on the following evaluation scale.
(§3) 5 mortality of 90% or above (nearly complete death)
(§4) 4 mortality of at least 70% and less than 90%
(§5) 3 mortality of at least 40% and less than 70%
(§6) 2 mortality of at least 20% and less than 40%
(§7) 1 mortality of at least 5% and less than 20%
(§8) 0 mortality of less than 5% (almost ineffective)
(§9) A: barnyardgrass, B: bulrush, C: ducksalad, D: large crabgrass, E: giant foxtail, F: wild oat, G: water foxtail, H: Italian ryegrass, I: velvetleaf, J: common ragweed, K: redroot pigweed, L: common lambsquater, M: posumbu knotweed, N: common chickweed, O: beadstraw, a: transplanted rice, b: corn, c: soybean, d: direct-seeded rice, e: wheat, f: sugar beet.
(§10) The doses (g/a) represents the amounts in g per 1 are (a) applied after adjustment of concentration adjustment.

[2] = system: bulrush; experiment: as above; settings: dose 2.52 g/a
Text: as §1, §2, §3, §4, §5, §6, §7, §8, §9, §10

[3] = system: ducksalad; experiment: as above; settings: dose 2.52 g/a
Text: as §1, §2, §3, §4, §5, §6, §7, §8, §9, §10

[4] = system: transplanted rice; experiment: Test Example 1: preemergence treatment under submerged conditions, effect on crop; settings: dose 2.52 g/a
Text: as §1, §2, §3, §4, §5, §6, §7, §8, §9, §10

[5] = system: barnyardgrass; experiment: Test Example 2: herbicidal effects during the vegetation period under submerged conditions; settings: treatment during the vegetation period under submerged conditions; dose 2.52 g/a
Experimental: (§11) Test on the Herbicidal Effects on Weeds During the Vegetation Period Under Submerged Conditions
(§12) Alluvial soil was put in 1/30000-are styrol cups and admixed with water so that it was submerged at a depth of 4 cm. In each cup, seeds of barnyardgrass, bulrush and ducksalad were sown together, and the cups were placed in a greenhouse at 25 to 30° C. to grow the plants. When the barnyardgrass, bulrush and ducksalad reached the 1- or 2-leaf stage, emulsifiable concentrates containing compounds of the present invention formulated in accordance with Formulation Example 2 were applied to the water surfaces at predetermined doses after diluted with water. Three weeks after the application, the herbicidal effects against various plants were determined on the same evaluation scale as in Test Example 1.
as §9, §10

[6] = system: bulrush; experiment: as above; settings: treatment during the vegetation period under submerged conditions; dose 2.52 g/a
Experimental: as §11, §12, §9, §10

[7] = system: ducksalad; experiment: as above; settings: treatment during the vegetation period under submerged conditions; dose 2.52 g/a
Experimental: as §11, §12, §9, §10

[8] = system: Italian ryegrass; experiment: Test Example 3: herbicidal effects in soil treatment; settings: dose 3.2 g/a
Text: (§13) Test on the Herbicidal Effects in Soil Treatment
(§14) Sterilized diluvial soil was put in plastic boxes with a length of 21 cm, a width of 13 cm and a depth of 7 cm, and seeds of barnyardgrass, large crabgrass, giant foxtail, wild oat, blackgrass, velvetleaf, common ragweed, redroot pigweed, common lambsquater, posumbu knotweed, common chickweed corn, soybean, rice, wheat and sugar beet were sown in spots and covered with an about 1.5 cm-thick soil layer. Emulsifiable concentrates containing compounds of the present invention formulated in accordance with Formulation Example 2 were uniformly applied to the soil surfaces at predetermined doses through a small sprayer after dilute with water. Three weeks after the application, the herbicidal effects against various plants were determined on the same evaluation scale as in Test Example 1.
as §9, §10

[9] = system: barnyardgrass; experiment: as above; settings: dose 3.2 g/a
Text: as §13, §14, §9, §10

[10] = system: common chickweed; experiment: as above; settings: dose 3.2 g/a
Text: as §13, §14, §9, §10

[11] = system: common lambsquater; experiment: as above; settings: dose 3.2 g/a
Text: as §13, §14, §9, §10

[12] = system: common ragweed; experiment: as above; settings: dose 3.2 g/a
Text: as §13, §14, §9, §10

[13] = system: giant foxtail; experiment: as above; settings: dose 3.2 g/a
Text: as §13, §14, §9, §10

[14] = system: large crabgrass; experiment: as above; settings: dose 3.2 g/a
Text: as §13, §14, §9, §10

[15] = system: posumbu knotweed; experiment: as above; settings: dose 3.2 g/a
Text: as §13, §14, §9, §10

[16] = system: redroot pigweed; experiment: as above; settings: dose 3.2 g/a
Text: as §13, §14, §9, §10

[17] = system: water foxtail; experiment: as above; settings: dose 3.2 g/a
Text: as §13, §14, §9, §10

[18] = system: Italian ryegrass; experiment: Test Example 4: herbicidal effect in foliage treatment; settings: dose 3.2 g/a, three weeks after application
Text: (§15) Test on the Herbicidal Effect in Foliage Treatment
as §14, with “chickweed,” for “chickweed”, “The boxes were placed in a greenhouse at 25 to 30° C. to grow the plants. After 14 days, emulsifiable” for “Emulsifiable”, “foliage” for “soil surfaces”, “diluted” for “dilute”
as §9, §10

[19] = system: barnyardgrass; experiment: as above; settings: dose 3.2 g/a, three weeks after application
Text: as §15
as §14, with “chickweed,” for “chickweed”, “The boxes were placed in a greenhouse at 25 to 30° C. to grow the plants. After 14 days, emulsifiable” for “Emulsifiable”, “foliage” for “soil surfaces”, “diluted” for “dilute”
as §9, §10

[20] = system: beadstraw; experiment: as above; settings: dose 3.2 g/a, three weeks after application
Text: as §15
as §14, with “chickweed,” for “chickweed”, “The boxes were placed in a greenhouse at 25 to 30° C. to grow the plants. After 14 days, emulsifiable” for “Emulsifiable”, “foliage” for “soil surfaces”, “diluted” for “dilute”
as §9, §10

[21] = system: common chickweed; experiment: as above; settings: dose 3.2 g/a, three weeks after application
Text: as §15
as §14, with “chickweed,” for “chickweed”, “The boxes were placed in a greenhouse at 25 to 30° C. to grow the plants. After 14 days, emulsifiable” for “Emulsifiable”, “foliage” for “soil surfaces”, “diluted” for “dilute”
as §9, §10

[22] = system: common lambsquater; experiment: as above; settings: dose 3.2 g/a, three weeks after application
Text: as §15
as §14, with “chickweed,” for “chickweed”, “The boxes were placed in a greenhouse at 25 to 30° C. to grow the plants. After 14 days, emulsifiable” for “Emulsifiable”, “foliage” for “soil surfaces”, “diluted” for “dilute”
as §9, §10

[23] = system: common ragweed; experiment: as above; settings: dose 3.2 g/a, three weeks after application
Text: as §15
as §14, with “chickweed,” for “chickweed”, “The boxes were placed in a greenhouse at 25 to 30° C. to grow the plants. After 14 days, emulsifiable” for “Emulsifiable”, “foliage” for “soil surfaces”, “diluted” for “dilute”
as §9, §10

[24] = system: giant foxtail; experiment: as above; settings: dose 3.2 g/a, three weeks after application
Text: as §15
as §14, with “chickweed,” for “chickweed”, “The boxes were placed in a greenhouse at 25 to 30° C. to grow the plants. After 14 days, emulsifiable” for “Emulsifiable”, “foliage” for “soil surfaces”, “diluted” for “dilute”
as §9, §10

[25] = system: large crabgrass; experiment: as above; settings: dose 3.2 g/a, three weeks after application
Text: as §15
as §14, with “chickweed,” for “chickweed”, “The boxes were placed in a greenhouse at 25 to 30° C. to grow the plants. After 14 days, emulsifiable” for “Emulsifiable”, “foliage” for “soil surfaces”, “diluted” for “dilute”
as §9, §10

[26] = system: posumbu knotweed; experiment: as above; settings: dose 3.2 g/a, three weeks after application
Text: as §15
as §14, with “chickweed,” for “chickweed”, “The boxes were placed in a greenhouse at 25 to 30° C. to grow the plants. After 14 days, emulsifiable” for “Emulsifiable”, “foliage” for “soil surfaces”, “diluted” for “dilute”
as §9, §10

[27] = system: redroot pigweed; experiment: as above; settings: dose 3.2 g/a, three weeks after application
Text: as §15
as §14, with “chickweed,” for “chickweed”, “The boxes were placed in a greenhouse at 25 to 30° C. to grow the plants. After 14 days, emulsifiable” for “Emulsifiable”, “foliage” for “soil surfaces”, “diluted” for “dilute”
as §9, §10

[28] = system: velvetleaf; experiment: as above; settings: dose 3.2 g/a, three weeks after application
Text: as §15
as §14, with “chickweed,” for “chickweed”, “The boxes were placed in a greenhouse at 25 to 30° C. to grow the plants. After 14 days, emulsifiable” for “Emulsifiable”, “foliage” for “soil surfaces”, “diluted” for “dilute”
as §9, §10

[29] = system: water foxtail; experiment: as above; settings: dose 3.2 g/a, three weeks after application
Text: as §15
as §14, with “chickweed,” for “chickweed”, “The boxes were placed in a greenhouse at 25 to 30° C. to grow the plants. After 14 days, emulsifiable” for “Emulsifiable”, “foliage” for “soil surfaces”, “diluted” for “dilute”
as §9, §10

For CC(C)COC(=O)N(c1ccccc1CN1COC(C)(C(F)(F)F)CC1=O)S(=O)(=O)C(F)(F)F (centres unmarked) [II-50], the “A: barnyardgrass, herbicidal effect (evaluation scale 0-5)” value [1] was 5 (mortality of 90% or above (nearly complete death)), the “B: bulrush, herbicidal effect (evaluation scale 0-5)” value [2] was 5 (mortality of 90% or above (nearly complete death)) and the “C: ducksalad, herbicidal effect (evaluation scale 0-5)” value [3] was 5 (mortality of 90% or above (nearly complete death)). For the same compound, the “a: transplanted rice, effect on crop (evaluation scale 0-5)” value [4] was 0 (mortality of less than 5% (almost ineffective)), the “A: barnyardgrass, herbicidal effect (evaluation scale 0-5)” value [5] was 5 (mortality of 90% or above (nearly complete death)) and the “B: bulrush, herbicidal effect (evaluation scale 0-5)” value [6] was 5 (mortality of 90% or above (nearly complete death)). The “C: ducksalad, herbicidal effect (evaluation scale 0-5)” value [7] was 5 (mortality of 90% or above (nearly complete death)), the “H: Italian ryegrass, herbicidal effect (evaluation scale 0-5)” value [8] was 0 (mortality of less than 5% (almost ineffective)) and the “A: barnyardgrass, herbicidal effect (evaluation scale 0-5)” value [9] was 4 (mortality of at least 70% and less than 90%). The “N: common chickweed, herbicidal effect (evaluation scale 0-5)” value [10] was 3 (mortality of at least 40% and less than 70%), the “L: common lambsquater, herbicidal effect (evaluation scale 0-5)” value [11] was 3 (mortality of at least 40% and less than 70%) and the “J: common ragweed, herbicidal effect (evaluation scale 0-5)” value [12] was 3 (mortality of at least 40% and less than 70%). The “E: giant foxtail, herbicidal effect (evaluation scale 0-5)” value [13] was 2 (mortality of at least 20% and less than 40%), the “D: large crabgrass, herbicidal effect (evaluation scale 0-5)” value [14] was 3 (mortality of at least 40% and less than 70%) and the “M: posumbu knotweed, herbicidal effect (evaluation scale 0-5)” value [15] was 0 (mortality of less than 5% (almost ineffective)). The “K: redroot pigweed, herbicidal effect (evaluation scale 0-5)” value [16] was 0 (mortality of less than 5% (almost ineffective)), the “G: water foxtail, herbicidal effect (evaluation scale 0-5)” value [17] was 4 (mortality of at least 70% and less than 90%) and the “H: Italian ryegrass, herbicidal effect” value [18] was 0 (mortality of less than 5% (almost ineffective)). For the same compound, the “A: barnyardgrass, herbicidal effect” value [19] was 3 (mortality of at least 40% and less than 70%), the “O: beadstraw, herbicidal effect” value [20] was 4 (mortality of at least 70% and less than 90%) and the “N: common chickweed, herbicidal effect” value [21] was 3 (mortality of at least 40% and less than 70%). The “L: common lambsquater, herbicidal effect” value [22] was 2 (mortality of at least 20% and less than 40%), the “J: common ragweed, herbicidal effect” value [23] was 3 (mortality of at least 40% and less than 70%) and the “E: giant foxtail, herbicidal effect” value [24] was 0 (mortality of less than 5% (almost ineffective)). For the same compound, the “D: large crabgrass, herbicidal effect” value [25] was 0 (mortality of less than 5% (almost ineffective)), the “M: posumbu knotweed, herbicidal effect” value [26] was 0 (mortality of less than 5% (almost ineffective)) and the “K: redroot pigweed, herbicidal effect” value [27] was 0 (mortality of less than 5% (almost ineffective)). The “I: velvetleaf, herbicidal effect” value [28] was 0 (mortality of less than 5% (almost ineffective)) and the “G: water foxtail, herbicidal effect” value [29] was 1 (mortality of at least 5% and less than 20%).
